The subject of assay [1] is Pseudomonas aeruginosa. In words: Turbidity test of amikacin eluates for bactericidal activity. It counts as cell-based. Particulars: amikacin eluates from constructs against Pseudomonas aeruginosa. The protocol:
(§1) Eluates taken from constructs of these different types were tested for bactericidal activity in turbidity tests against appropriate strains of bacteria: amikacin eluates against Pseudomonas aeruginosa and vancomycin eluates against Staphylococcus aureus. Eluates were added to trypticase soy broth in a 1:10 dilution. Broth was then inoculated with bacteria and then incubated overnight at 37° C. Absorbance of these solutions (turbidity) was used as an indicator of bacterial growth. Percent inhibition of bacterial growth is calculated from these measurements.

Assay [2] has as its system Staphylococcus aureus. Description: Turbidity test of vancomycin eluates for bactericidal activity. Particulars: vancomycin eluates from constructs against Staphylococcus aureus. The assay is classed as cell-based. Here is the method: as §1

As for `NCC[C@H](O)C(=O)N[C@@H]1C[C@H](N)[C@@H](O[C@H]2O[C@H](CN)[C@@H](O)[C@H](O)[C@H]2O)[C@H](O)[C@H]1O[C@H]1O[C@H](CO)[C@@H](O)[C@H](N)[C@H]1O` [amikacin], the “time up to which elution is inhibitory” value in assay [1] is recorded as “up to 24 hours”.
Consider `CN[C@H](CC(C)C)C(=O)N[C@H]1C(=O)N[C@@H](CC(N)=O)C(=O)N[C@H]2C(=O)N[C@H]3C(=O)N[C@H](C(=O)N[C@H](C(=O)O)c4cc(O)cc(O)c4-c4cc3ccc4O)[C@H](O)c3ccc(c(Cl)c3)Oc3cc2cc(c3O[C@@H]2O[C@H](CO)[C@@H](O)[C@H](O)[C@H]2O[C@H]2C[C@](C)(N)[C@H](O)[C@H](C)O2)Oc2ccc(cc2Cl)[C@H]1O` [vancomycin], for which the “time up to which elution is inhibitory” value in assay [2] is reported as “up to 48 hours”.
